How the values were obtained:
[1] = test system: sensory neurons; assay: Myelinated sensory neurons with or without cisplatin: neuron count, neurite length, myelin sheath length (Examples 7 and 8a, curative protocol); format: cell-based, rat; settings: for Average percentage of neurite length relative to control / Average percentage of sensory neuron count relative to control: isolated ions + cisplatin (12 μM, 24 h), Table 3
Description: Female rats with 15 days gestation were killed by cervical dislocation (Wistar rats; January Lab) and fetuses were removed from the uterus. Embryonic DRGs were collected and placed in an icy medium of Leibovitz 15 (L15; PanBiotech, Ref P04-27055, Batch: 5331021) containing 2% Penicillin-Streptomycin (PS; PanBiotech, ref: P06-07100, Batch: 9300621) and 1% bovine serum albumin (BSA; PanBiotech, ref: P06-1391100, lot: H210207). DRG were dissociated by trypsinization for 20 minutes (min) at 37° C. (Trypsin EDTA 1X; PanBiotech, Ref: P10-023100, Batch: 8600621). The reaction was halted by the addition of Dulbecco's modified Eagle medium (DMEM; PanBiotech, Ref: P04-03600, Batch: 1130721) containing DNase I grade II (0.1 mg/ml; PanBiotech, Ref: P60-37780100, Batch: H181015) and 10% fetal calf serum (FCS; Invitrogen, ref: 10270106, lot: 2319479). The cells were then mechanically dissociated by 3 passes through a 10 ml pipette. The cells were then centrifuged at 180×g for 10 min at +4° C. on a layer of BSA (3.5%) in medium L15. The supernatant was discarded and the cell pellets were resuspended in a defined culture medium consisting of Neurobasal (Invitrogen, Ref: 21103049, Batch: 2348949) supplemented with 2% B27; (Invitrogen, ref: 17504-044, Batch: 2336991), L-glutamine (2 mM; PanBiotech, Ref: P04-80100, Batch: 2770620), 2% PS and 50 ng/mL NGF (Sigma, Ref: N1408, Lot: SLCG2596). The viable cells were then counted in a Neubauer cytometer using the trypan blue exclusion test. The cells were seeded to a density of 12000 cells/wells in 96-well plates (pre-coated with poly-D-lysine; Greiner, Ref: 655940, Lot: E200933A) and were grown at 37° C. in humidified air (95%/CO2 (5%) atmosphere. Half of the middle was changed every 2 days with fresh medium. The cells are maintained for 7 days to allow the proliferation of Schwann cells and sensory neurons. On day 8, the medium is supplemented with 50 μg/mL of ascorbic acid (AA; Sigma, Ref 092902, Batch: 05316HJ-438) to initiate the differentiation of basal Schwann cells into myelinating Schwann cells.
Cis-diammineplatinum(II) dichloride (cisplatin; Sigma, ref: P4394, lot: MKCN8054) was reconstituted in DMSO at 24 mM (stock solution). The control environment was prepared under the same conditions. After 12 days of culture with AA, the primary sensory neurons were pretreated for 2 hours with the compositions of Example 1 or with a reference compound (NGF, 50 ng/ML) and then intoxicated with cisplatin. The cisplatin preparation was used on neurons at a final concentration of 12 μM diluted in control medium for 24 hours of incubation.
In parallel, the effect of isolated or combined ions two by two on the survival of sensory neurons and the length of neurites was also evaluated under the same conditions. The solutions are all prepared from chlorides of the ions tested.
The effect of ion combinations on sensory neuron survival and neurite length was evaluated under the same conditions as described above. The solutions are all prepared from chlorides of the ions tested.

[2] = test system: IL-1β; assay: IL-1β in supernatant of LPS-stimulated human mononuclear blood cells; format: cell-based; settings: for Results IL-1β (percentage relative to the vehicle): 2 h pretreatment, LPS 100 ng/mL 6 h; for reduction of IL-1β levels, in words: LPS 100 ng/mL, FIG. 7-9
Description: (§1) Methods: Mononuclear blood cells are isolated from the blood of healthy donors through Ficoll density gradient (Ficoll-Paque PLUS; GE Healthcare; 11778538) with density gradient centrifuge tubes (SepMate; StemCell Technologies; 85450). The mononuclear blood cells are deposited (200000 cells per well) in 96-well plates, pretreated either with the vehicle (0.179% PBS) or with a composition according to the invention or ions alone (see Table 6) for 2 hours, then stimulated for 6 hours without (vehicle 0.002% H2O) or with lipopolysaccharides (LPS at 100 ng/mL; Invivogen, tlrl-b5lps) at 37° C., 5% C02 in an RPMI medium containing 10% fetal calf serum and 1% penicillin/streptomycin. After 6 hours of incubation, the culture supernatant is collected and stored at −20° C. until cytokine analysis. The level of cytokines (IL-1β and IL-18) is quantified in the culture supernatant by ELISA according to the manufacturer's instructions (R&D Systems; DY201, DY318-05). Table 6 summarizes the percentage of IL-1β and IL-18 cytokines measured for each condition relative to the vehicle (ns: not significant)

[3] = test system: IL-18; assay: IL-18 in supernatant of LPS-stimulated human mononuclear blood cells; format: cell-based; settings: for Results IL-18 (percentage relative to the vehicle): 2 h pretreatment, LPS 100 ng/mL 6 h; for reduction of IL-18 levels, in words: LPS 100 ng/mL, FIG. 7-9
Description: as §1

[4] = test system: sensory neurons; assay: Myelinated sensory neurons with or without cisplatin: neuron count, neurite length, myelin sheath length (Examples 7 and 8a, curative protocol); format: cell-based, rat; settings: without cisplatin (healthy cells), Table 2
[5] = rats; cited from earlier work
[6] = test system: sensory neurons; assay: Myelinated sensory neurons with or without cisplatin: survival, neurite length, myelin sheath length (Example 8b, protection protocol); format: cell-based, rat; settings: cisplatin 12 μM, 24 hours
Description: The primary endpoint was the measurement of sensory neurons survival, the assessment of neurite length and myelin sheath length of sensory neurons after cisplatin intoxication and without intoxication.
Cis-diammineplatinum (II) dichloride (cisplatin; Sigma, ref: P4394, lot: MKCL0026) was reconstituted in medium at 10 mg/ml (stock solution). The control environment was prepared under the same conditions. After 12 days of culture with AA, primary sensory neurons were pretreated for 2 hours with a 3-concentration multi-ionic complex and then intoxicated with cisplatin. The cisplatin preparation was used on neurons at a final concentration of 12 μM diluted in control medium for 24 hours of incubation.
The concentrations of the multi-ionic complex were: • 1. TA6496: Li 10.37 mmol/kg, Mg 2.27 mmol/kg, K 16.88 mmol/kg • 2. TA6440: Li 5.76 mmol/kg, Mg 1.26 mmol/kg, K 9.38 mmol/kg • 3. TA6415: Li 1.73 mmol/kg, Mg 0.38 mmol/kg, K 2.81 mmol/kg
The following conditions were assessed: • Control medium • Control+cisplatin (12 μM, 24h) • Multi-ionic complex, at 3 different concentrations TA6496, TA6440 or TA6415+cisplatin (12 μM, 24h) • Multi-ionic complex, at 3 different concentrations TA6496, TA6440 or TA6415.
This study was performed with 6 wells per condition and duplicated for validation of results. The data included and analysed are the combined results of the 2 studies. […]

SMILES | Average percentage of neurite length relative to control [1] | Average percentage of sensory neuron count relative to control [1] | Results IL-1β (percentage relative to the vehicle) ([2]; listed as K - 660 mg/L) | Results IL-1β (percentage relative to the vehicle) ([2]; listed as K - 880 mg/L) | reduction of IL-1β levels, in words [2] | Results IL-18 (percentage relative to the vehicle) ([3]; listed as K - 660 mg/L) | Results IL-18 (percentage relative to the vehicle) ([3]; listed as K - 880 mg/L) | reduction of IL-18 levels, in words [3] | Average percentage of neurite length relative to control [4] | Average percentage of sensory neuron count relative to control [4] | intravenous lethal dose 50 (LD50) over 24 hours [5] | effect on neurite length, in words ([1]; cisplatin 12 μM, 24 h) | effect on survival of sensory neurons (cisplatin-induced apoptosis), in words ([1]; cisplatin 12 μM, 24 h) | effect on myelin sheath length, in words [6] | Results IL-1β (percentage relative to the vehicle) ([2]; listed as Mg - 55.4 mg/L) | Results IL-1β (percentage relative to the vehicle) ([2]; listed as Mg - 73.9 mg/L) | Results IL-18 (percentage relative to the vehicle) ([3]; listed as Mg - 55.4 mg/L) | Results IL-18 (percentage relative to the vehicle) ([3]; listed as Mg - 73.9 mg/L)
[Cl-].[K+] [K, potassium chloride] | 91% | 58% | 80.52% | 85.31% | Neither magnesium, lithium, nor potassium, alone, demonstrated significant reductions | 72.48% | 69.71% | Neither magnesium, lithium, nor potassium, alone, demonstrated significant reductions | 115% | 117% | 142 mg/kg | – | – | – | – | – | – | –
[Mn+2] [Manganese] | – | – | – | – | – | – | – | – | – | – | – | without demonstrating any significant effect | without demonstrating any significant effect | without demonstrating any significant effect | – | – | – | –
[Cl-].[Cl-].[Mg+2] [Mg, magnesium chloride] | 73% | 68% | – | – | Neither magnesium, lithium, nor potassium, alone, demonstrated significant reductions | – | – | Neither magnesium, lithium, nor potassium, alone, demonstrated significant reductions | 98% | 108% | – | – | – | – | 100.91% | 97.41% | 102.41% | 95.28%

Source: US20250345362A1, “MULTI-IONIC COMPLEX FOR THE PREVENTION OR TREATMENT OF INFLAMMATION” (YNIOS PHARMA, priority 2022, published 2025)
